Experimental findings from patent US5516897A, “Monoazo reactive dyes and solutions thereof” (Zeneca Limited, priority 1992, dated 1996) are described below.

Each structure is given as a SMILES string.

A short description of the series: solubility in water. In kind it is physicochemical. As to conditions: for solubility in water: temperature not stated. The source says: The concentrated solution was desalinated in a visking tubing placed in distilled water and the water replaced periodically until no further chloride ions could be detected using […] and the product precipitated by addition of ethanol to give 46 g of the title product (80% yield) having a lambda max at 417 nm and very high solubility in water.
The higher solubility of C1 compared with D1 and D2 means that more C1 can be prepared in a given vessel than for D1 or D2.

Turning to `CCN(c1nc(Cl)nc(Nc2cc(NC(C)=O)c(N=Nc3cc(S(=O)(=O)O)c4cccc(S(=O)(=O)O)c4c3)cc2OC)n1)c1cc(S(=O)(=O)O)ccc1C` [Example 5], the “solubility in water at 25° C.” value (25° C.) is “good”.

For `CC(C)N(c1ccc(S(=O)(=O)O)cc1)c1nc(Cl)nc(Nc2ccc(N=Nc3cc4c(S(=O)(=O)O)cc(S(=O)(=O)O)cc4cc3S(=O)(=O)O)c(NC(N)=O)c2)n1` [Example 4], the “solubility in water at 20° C.” value (20° C.) was “very high”.

Consider `CCN(c1nc(Nc2ccc(N=Nc3cc4c(S(=O)(=O)O)cc(S(=O)(=O)[O-])cc4cc3S(=O)(=O)O)c(NC(N)=O)c2)nc(-[n+]2ccc(C(=O)O)cc2)n1)c1cc(S(=O)(=O)O)ccc1C` [Example 2], for which the solubility in water result is “very high”.

Consider `CCN(c1nc(Cl)nc(Nc2ccc(N=Nc3cc4c(S(=O)(=O)O)cc(S(=O)(=O)O)cc4cc3S(=O)(=O)O)c(NC(N)=O)c2)n1)c1cc(S(=O)(=O)O)ccc1C` [Example 1], for which the solubility in water result is given as “very high”.

On to `CC(C)N(c1cccc(S(=O)(=O)O)c1)c1nc(Cl)nc(Nc2ccc(N=Nc3cc4c(S(=O)(=O)O)cc(S(=O)(=O)O)cc4cc3S(=O)(=O)O)c(NC(N)=O)c2)n1` [Example 3], for which the solubility in water result is given as “high”.
